From patent US20220142925A1, “NON-STEROIDAL ANTI-INFLAMMATORY LYOPHILIZED PHARMACEUTICAL COMPOSITION” (EUROFARMA LABORATÓRIOS S.A., priority 2019, published 2022)
Like-named read-outs stand apart in the source and are kept apart here.

Key:
[1] = cited from earlier work; for solubility (in words): aqueous; for solubility: 20° C.
[2] = cited from earlier work
[3] = Forced degradation study (formation of valdecoxib); format: physicochemical; details: oxidative, basic, acidic conditions
cyclooxygenase 1 (COX-1) = cyclooxygenase 1 (COX-1) (Homo sapiens, UniProt P23219); details: therapeutic plasma concentrations in humans; cited from earlier work
Sequence of cyclooxygenase 1 (COX-1) (P23219 24-599): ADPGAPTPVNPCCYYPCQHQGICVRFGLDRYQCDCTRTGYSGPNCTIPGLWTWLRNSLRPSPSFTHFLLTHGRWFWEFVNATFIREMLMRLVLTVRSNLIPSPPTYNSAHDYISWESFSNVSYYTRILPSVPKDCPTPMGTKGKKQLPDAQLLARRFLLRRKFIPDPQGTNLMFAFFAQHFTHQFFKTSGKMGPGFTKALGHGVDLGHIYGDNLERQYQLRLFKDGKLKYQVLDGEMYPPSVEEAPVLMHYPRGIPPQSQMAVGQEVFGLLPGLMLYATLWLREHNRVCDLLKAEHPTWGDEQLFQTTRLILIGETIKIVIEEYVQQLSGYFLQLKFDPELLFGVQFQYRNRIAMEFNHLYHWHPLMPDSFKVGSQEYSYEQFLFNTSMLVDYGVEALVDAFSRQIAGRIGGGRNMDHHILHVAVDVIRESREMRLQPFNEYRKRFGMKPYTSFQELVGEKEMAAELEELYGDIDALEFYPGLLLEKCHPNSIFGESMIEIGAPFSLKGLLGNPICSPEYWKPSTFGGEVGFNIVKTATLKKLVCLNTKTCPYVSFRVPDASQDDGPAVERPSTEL

SMILES: CCC(=O)NS(=O)(=O)c1ccc(-c2c(-c3ccccc3)noc2C)cc1 [Parecoxib, parecoxib]
- solubility in methylene hydrochloride ([1]; methylene chloride): insoluble
- solubility in tetrahydrofuran ([1]; tetrahydrofuran): slightly soluble
- solubility in water ([1]; water): very soluble
- pH of 1% parecoxib in water ([2]; 1% in water at 25° C.): about 7.80
- dissociation constant, pKa [2]: 6.07

SMILES: CCC(=O)NS(=O)(=O)c1ccc(-c2c(-c3ccccc3)noc2C)cc1 [acidic form of parecoxib]
- solubility (in words) [1]: low solubility

SMILES: CCC(=O)NS(=O)(=O)c1ccc(-c2c(-c3ccccc3)noc2C)cc1.[Na+] [parecoxib sodium, N-[[4-(5-methyl-3-phenyl-4-isoxazolyl)phenyl]sulfonyl]propanamide sodium salt]
- sensitivity in forced degradation in relation to the formation of valdecoxib [3]: sensitive to oxidative, basic, and acidic conditions
- solubility ([1]; pH 7.8): 18 mg/mL
- solubility ([1]; pH 8.3): 220 mg/mL
- solubility (in words) [1]: highly soluble

SMILES: Cc1onc(-c2ccccc2)c1-c1ccc(S(N)(=O)=O)cc1 [valdecoxib]
- solubility (in words) [1]: low
- inhibition of cyclooxygenase 1 (COX-1) (cyclooxygenase 1 (COX-1)): does not inhibit
